Source: patent US20220088144A1, “SGLT-2 INHIBITORS OR IL-1R ANTAGONISTS FOR REDUCTION OF HYPOGLYCAEMIA AFTER BARIATRIC SURGERY” (UNIVERSITÄTSSPITAL BASEL, priority 2019, published 2022)

Columns and labels:
[1] = system: bulk monocytes; experiment: RNA sequencing of monocytes isolated from treated patients; design: species or system human; conditions: treatment compared to placebo
Procedure: Following the inventors' hypothesis of an overactivation of the innate immune system in patients experiencing post-bariatric hypoglycemia, they assessed transcriptional changes in innate immune cells from the inventors' patient population using an unbiased RNA sequencing approach. Therefore, the inventors isolated monocytes from peripheral blood sampled immediately before and 60 minutes (i.e. before rescue glucose application when needed) after ingestion of the mixed-meal on all three treatment days.
(§1) Blood samples were taken before and 60 minutes after meal intake. Due to scheduling conflicts, samples from two patients could not be processed. These samples are thus assumed to be missing at random. Of note, samples from patient 3 (sleeve gastrectomy) had already been processed for RNA sequencing before the final change of protocol. Sequencing data obtained from this patient were thus kept for the purpose of these analyses. Peripheral blood mononuclear cells were obtained by Ficoll density gradient centrifugation (Lymphoprep Fresenius Kabi, Norway). For 9 out of 11 patients, an additional step was added after density gradient centrifugation to pre-enrich monocytes by negative selection with CD3 human MicroBeads (#130-050-101; Miltenyi Biotec). The obtained cellular monocyte fractions were then incubated with FC-Block for 15 minutes at room temperature [(Human FcR TruStain FcX (Biolegend) REF 422302, compatible with flow cytometric staining with anti-human CD16 (clone 3G8)], and subsequently labeled with the following antibodies: APC Mouse anti-Human CD3 [HIT3a alpha] (#555342; BD Biosciences), FITC Mouse Anti-Human CD19 [HIB19 RUO] (#560994; BD Biosciences), PE-Cy5 Mouse Anti-Human CD56 [B159 RUO] (#560842; BD Biosciences), PE Mouse Anti-Human CD16 [3G8 RUO] (#560995; BD Biosciences), APC-Cy7 Mouse Anti-Human CD14 [MφP-9 RUO] (#561709; BD Biosciences).
(§2) Cells were then further enriched into the three monocyte subsets by fluorescence-activated cell sorting on a BD FACS-Aria III. Classical monocytes were defined as: single, live, CD56− CD19−CD3−CD14+CD16−, Intermediate monocytes were defined as: single, live CD56−CD19− CD3−CD14+CD16+ and non-classical monocytes were defined as: single, live CD56−CD19− CD3−CD14−CD16+. Bulk monocytes were defined as a combination-gate of the three subsets. For a representative example of the gating strategy see FIG. 13.
Total RNA was extracted from 500'000 bulk monocytes, isolated as described above using the Nucleo Spin RNA II Kit (Machery Nagel). Integrity of isolated total RNA was assessed on a 2100 Bioanalyzer System (Agilent Technologies, USA) with the Agilent RNA 6000 Pico Kit as recommended by the manufacturer. RNA concentration was determined with the Quant-iT RiboGreen RNA Assay Kit (Thermo Fisher Scientific, USA).
Purification of mRNA by poly(A)-selection, mRNA fragmentation and cDNA library preparation for RNA-Seq were performed using the TruSeq Stranded mRNA HT Sample Preparation Kit (Illumina, USA) according to the manufacturer's protocol. Before sequencing, quality and quantity analysis of prepared cDNA libraries were done on a Fragment Analyzer System (Advanced Analytical Technologies, USA). cDNA libraries were sequenced as single-end reads with 125 cycles on a HiSeq2500 sequencing system (Illumina, USA) at the Genomics Facility Basel. Of note, 2 samples failed during library preparation.
Initial quality checks were performed with FastQC version 0.11.4 (www.bioinformatics.babraham.ac.uk/projects/fastqc/). Adaptor clipping and quality-trimming of sequences was performed using Trimmomatic version 0.36 (Bolger, A. M., Lohse, M., and Usadel, B. (2014). Bioinformatics 30, 2114-2120) and reads were aligned to the GRCh38 reference genome using the splice aware aligner STAR version 2.7.0 (Dobin, A., et al. (2013). Bioinformatics 29, 15-21). Count-tables were produced using HTSeq version 0.6.1 (Anders, S., Pyl, P. T., and Huber, W. (2015). Bioinformatics 31, 166-169). […]

[2] = system: bulk monocytes; experiment: Ex vivo cytokine-secretion assay of monocytes isolated from treated patients; assay type: cell-based, human; conditions: for IL-1 beta in monocyte supernatant, estimate vs placebo: FIG. 9a; for IL-1 beta in monocyte supernatant, estimate vs placebo / IL-6 in monocyte supernatant, estimate vs placebo / TNFalpha in monocyte supernatant, estimate vs placebo: post-meal, no-hypo vs placebo, no-hypo, non-stimulated; for IL-6 in monocyte supernatant, estimate vs placebo: FIG. 9b; for TNFalpha in monocyte supernatant, estimate vs placebo: FIG. 9c; for postprandial increase in inflammatory cytokine secretion (IL-1β, IL-6, TNF-α) by monocytes: ex vivo culture 18 h, compared to placebo
Procedure: In order to evaluate if changes at RNA level translated into protein expression, the inventors cultured monocytes isolated as described for RNA sequencing for a period of 18 h and measured pro-inflammatory cytokines in cell culture supernatants. […] In line with the reasoning, it has been shown that monocytes taken from an inherently pro-inflammatory milieu (septic shock), express increased mRNA levels of various inflammatory cytokines and chemokines (IL-1β, IL-1α, IL-6, CCL2), but release markedly lower levels of protein following ex vivo stimulation with LPS.
as §1, §2
Bulk monocytes obtained as described above were resuspended in fresh medium (RPMI-1640 (containing 11 mM Glucose, #31870-025; GIBCO) containing 200 U/ml penicillin, 200 U/ml streptomycin (Pen/Strep, #15140; GIBCO), 2 mM Glutamax (#35050061; GIBCO), 1 mM NaPyruvat (#11360-039; GIBCO), 1×MeM (#11140050; Sigma) and 10% FCS (#10500; Invitrogen)) at a density of 50'000 cells/well in a standard 96-well U-bottom plate. For each patient-visit sample, monocytes pre- and post-liquid mixed-meal were either left unstimulated (baseline condition) or activated with LPS (LPS-SM, #tlrl-smlps, Invivogen=activated condition) at a concentration of 5 ng/ml in duplicates. Thus, treated cells were then incubated for a period of 18 hours at 37° C. and 5% CO2 followed by harvesting of cell supernatants. Cytokine concentrations were determined in cell supernatants using the V-PLEX Human Proinflammatory Panel II (4-Plex) kit (Mesoscale Discovery) according to the manufacturer's instructions (Alternate Protocol 1, Extended Incubation). Two patients had to be excluded from analysis due to technical problems.

Row | Molecule | number of downregulated genes in monocytes [1] | number of upregulated genes in monocytes [1] | total genes differentially regulated in monocytes [1] | IL-1 beta in monocyte supernatant, estimate vs placebo [2] | IL-6 in monocyte supernatant, estimate vs placebo [2] | TNFalpha in monocyte supernatant, estimate vs placebo [2] | postprandial increase in inflammatory cytokine secretion (IL-1β, IL-6, TNF-α) by monocytes [2]
1 | anakinra: CAS NO 143090-92-0; recombinant, non-glycosylated form of the human interleukin-1 receptor antagonist (IL-1 Ra), 153 amino acids | 71 | 163 | 234 | −2426.73 | −17208.1 | −452.659 | significantly inhibited
2 | OC[C@H]1O[C@@H](c2ccc(Cl)c(Cc3ccc(O[C@H]4CCOC4)cc3)c2)[C@H](O)[C@@H](O)[C@@H]1O [empagliflozin] | 0 | 14 | 14 | −3395.36 | −18937.7 | −453.496 | significantly inhibited
